Measured values reported in US10131664B2 (Celgene Quanticel Research, Inc., priority 2013, dated 2018).
Counter-ions that a name gives are not always drawn. Like-named read-outs stand apart in the source and are kept apart here.

How the values were obtained:
THP-1 (AML) cells = test: LSD1 CD11b cellular assay (flow cytometry); assay type: cell-based; details: Homo sapiens, read-out: Cellular IC50
Method: To analyze LSD1 inhibitor efficacy in cells, a CD11b flow cytometry assay was performed. LSD1 inhibition induces CD11b expression in THP-1 (AML) cells which can be measured by flow cytometry. […] LSD1 test compounds were serially diluted in DMSO. The dilutions were added to each well accordingly to a final concentration of 0.2% DMSO. The cells were incubated at 37° C. in 5% CO2 for 4 days. 250 μL of each well was transferred to a well in a 96 well round bottom plate. The plate was centrifuged at 1200 rpm at 4 degrees Celsius in a Beckman Coulter Alegra 6KR centrifuge for 5 min. The media was removed leaving the cells at the bottom of the wells. The cells were washed in 100 μL cold HBSS (Hank's Balanced Salt Solution) plus 2% BSA (Bovine Serum Albumin) solution and centrifuged at 1200 rpm at 4° C. for 5 min. The wash was removed. […] The cells were centrifuged and washed two times in 100 μl HBSS plus 2% BSA. After the final spin the cells were resuspended in 100 μL HBSS plus 2% BSA containing 1 μg/mL DAPI (4′,6-diamidino-2-phenylindole). The cells were then analyzed by flow cytometry in a BD FACSAria machine. Cells were analyzed for CD11b expression. The percent of CD11b expressing cells for each inhibitor concentration was used to determine an IC50 curve for each compound analyzed.

full-length human LSD1 = full-length human LSD1 (Homo sapiens (Human), UniProt O60341); test: In vitro enzyme inhibition assay LSD-1 (TR-FRET); assay type: biochemical; details: TR-FRET, 0.1 nM LSD1, 50 nM H3K4me1-biotin peptide, 2 μM FAD, pH7.3; read-out: LSD1 IC50
Method: This assay determines the ability of a test compound to inhibit LSD1 demethylase activity.
The enzymatic assay of LSD1 activity is based on Time Resolved-Fluorescence Resonance Energy Transfer (TR-FRET) detection.
The ability of the compounds disclosed herein to inhibit LSD1 activity was quantified and the respective IC50 value was determined. Table 5 provides the IC50 values of various substituted heterocyclic compounds disclosed herein.

[1] = 96 h, CD11b expression in THP-1 (AML) cells, flow cytometry, 4 days incubation

| Compound | IC50 (THP-1 (AML) cells; [1]) [nM] | IC50 (full-length human LSD1) [nM] | IC50 (THP-1 (AML) cells; THP-1, 96 h) [nM] |
| --- | --- | --- | --- |
| Cc1ccc(-c2nc3ccn(C[C@H]4CNCCO4)c3cc2-c2ccc(C#N)cc2)cc1 [Example 10, 4-[5-(4-methylphenyl)-1-[[(2R)-morpholin-2-yl]methyl]pyrrolo[3,2-b]pyridin-6-yl]benzonitrile] | 1000 to 10000 | < 100 |  |
| N#Cc1ccc(-c2cc3c(ccn3C[C@H]3CNCCO3)nc2-c2ccc(F)cc2)cc1 [Example 11, 4-[5-(4-fluorophenyl)-1-[[(2R)-morpholin-2-yl]methyl]pyrrolo[3,2-b]pyridin-6-yl]benzonitrile] | 1000 to 10000 | < 100 |  |
| Cc1ccc(-c2nc3ccn(CCCN)c3cc2-c2ccc(C#N)cc2)cc1 [Example 12] | 100 to 1000 | < 100 |  |
| Cc1ccc(-c2nc3cnn(CC4CCNC4)c3cc2-c2ccc(C#N)cc2)cc1 (stereo not drawn) [Example 13] | < 100 | < 100 |  |
| Cc1ccc(-c2nc3cnn(CC4CCNCC4)c3cc2-c2ccc(C#N)cc2)cc1 [Example 14] | < 100 | < 100 |  |
| Cc1ccc(-c2nc3cnn(C[C@H]4[C@@H]5CNC[C@@H]54)c3cc2-c2ccc(C#N)cc2)cc1 [Example 15, 4-[1-[[(1S,5R)-3-azabicyclo[3.1.0]hexan-6-yl]methyl]-5-(4-methylphenyl)pyrazolo[4,3-b]pyridin-6-yl]benzonitrile] | < 100 | < 100 |  |
| Cc1ccc(-c2cnc(NC[C@H]3CCNC3)nc2-c2ccc(C#N)cc2)cc1 [Example 16, 4-[5-(4-methylphenyl)-2-{[(3S)-pyrrolidin-3-ylmethyl]amino}pyrimidin-4-yl]benzonitrile] | < 100 | < 100 |  |
| N#Cc1ccc(-c2nc(NC[C@H]3CCNC3)ncc2-c2ccc(F)cc2)cc1 [Example 18, 4-[5-(4-fluorophenyl)-2-{[(3S)-pyrrolidin-3-ylmethyl]amino}pyrimidin-4-yl]benzonitrile] | 100 to 1000 | < 100 |  |
| N#Cc1ccc(-c2nc(NC[C@H]3CCNC3)ncc2-c2ccc(Cl)cc2)cc1 [Example 19, 4-[5-(4-chlorophenyl)-2-{[(3S)-pyrrolidin-3-ylmethyl]amino}pyrimidin-4-yl]benzonitrile] | 100 to 1000 | < 100 |  |
| Cc1ccc(-c2cnc(OC[C@@H]3CCNC3)nc2-c2ccc(C#N)cc2)cc1 [Example 20, 4-[5-(4-methylphenyl)-2-[(3R)-pyrrolidin-3-ylmethoxy]pyrimidin-4-yl]benzonitrile] | 100 to 1000 | < 100 |  |
| Cc1ccc(-c2cnc(N3C[C@H]4CNC[C@H]4C3)nc2-c2ccc(C#N)cc2)cc1 [Example 21, 4-{2-[(3aR,6aS)-octahydropyrrolo[3,4-c]pyrrol-2-yl]-5-(4-methylphenyl)pyrimidin-4-yl}benzonitrile] | < 100 | < 100 |  |
| Cc1ccc(-c2cnc(N3CCC4CNCC4C3)nc2-c2ccc(C#N)cc2)cc1 (stereo not drawn) [Example 22, 4-[5-(4-methylphenyl)-2-{octahydro-1H-pyrrolo[3,4-c]pyridin-5-yl}pyrimidin-4-yl]benzonitrile] | < 100 | < 100 |  |
| Cc1ccc(-c2cnc(N3CC[C@@H]4CNC[C@@H]4CC3)nc2-c2ccc(C#N)cc2)cc1 [Example 23, 4-{2-[(3aR,8aS)-decahydropyrro[3,4-d]azepin-6-yl]-5-(4-methylphenyl)pyrimidin-4-yl}benzonitrile] | < 100 | < 100 |  |
| N#Cc1ccc(-c2nc(NC[C@H]3CCNC3)ncc2-c2ccc(C(F)(F)F)cc2)cc1 [Example 25, 4-(2-{[(3S)-pyrrolidin-3-ylmethyl]amino}-5-[4-(trifluoromethyl)phenyl]pyrimidin-4-yl)benzonitrile] | 100 to 1000 | < 100 |  |
| N#Cc1ccc(-c2nc(NC[C@H]3CCNC3)ncc2C#CC2CC2)cc1 [Example 26, 4-[5-(2-cyclopropylethynyl)-2-{[(3S)-pyrrolidin-3-ylmethyl]amino}pyrimidin-4-yl]benzonitrile] | 100 to 1000 | < 100 |  |
| Cc1ccc(-c2cnc(N[C@@H]3C[C@H]4CNC[C@H]4C3)nc2-c2ccc(C#N)cc2)cc1 [Example 27, 4-(2-{[(3aR,5S,6aS)-octahydrocyclopenta[c]pyrrol-5-yl]amino}-5-(4-methylphenyl)pyrimidin-4-yl)benzonitrile] | 100 to 1000 | 100 to 1000 |  |
| Cc1ccc(-c2cc(NCC3CCNC3)nn2-c2ccc(C#N)cc2)cc1 (stereo not drawn) [Example 43, 4-[5-(4-methylphenyl)-3-(pyrrolidin-3-ylmethylamino)pyrazol-1-yl]benzonitrile] | < 100 | < 100 |  |
| Cc1ccc(-c2cc(NC[C@H]3CCNC3)nn2-c2ccc(C#N)cc2)cc1 [Example 44, 4-[5-(4-methylphenyl)-3-[[(3S)-pyrrolidin-3-yl]methylamino]pyrazol-1-yl]benzonitrile] | 100 to 1000 | < 100 |  |
| Cc1ccc(-c2cc(NC[C@@H]3CCNC3)nn2-c2ccc(C#N)cc2)cc1 [Example 45, 4-[5-(4-methylphenyl)-3-[[(3R)-pyrrolidin-3-yl]methylamino]pyrazol-1-yl]benzonitrile] | 100 to 1000 | < 100 |  |
| Cc1ccc(-c2cc(NCC3CCNCC3)nn2-c2ccc(C#N)cc2)cc1 [Example 46, 4-[5-(4-methylphenyl)-3-(piperidin-4-ylmethylamino)pyrazol-1-yl]benzonitrile] | 100 to 1000 | < 100 |  |
| Cc1ccc(-c2cc(NC[C@H]3[C@@H]4CNC[C@@H]43)nn2-c2ccc(C#N)cc2)cc1 [Example 47, 4-[3-[[(1S,5R)-3-azabicyclo[3.1.0]hexan-6-yl]methylamino]-5-(4-methylphenyl)pyrazol-1-yl]benzonitrile] | 100 to 1000 | < 100 |  |
| COc1ccc(-c2nc3ccn(C[C@@H]4CCNC4)c3cc2-c2ccc(C#N)cc2)cc1 [Example 49, 4-{1-[((3R)pyrrolidin-3-yl)methyl]-5-(4-methoxyphenyl)pyrrolo[3,2-b]pyridin-6-yl}benzenecarbonitrile, HCl salt] | < 100 | < 100 |  |
| COc1ccc(-c2nc3ccn(C[C@@H]4CCNC4)c3cc2-c2ccc(C#N)cc2)cc1F [Example 50, 4-{1-[((3R)pyrrolidin-3-yl)methyl]-5-(3-fluoro-4-methoxyphenyl)pyrrolo[3,2-b]pyridin-6-yl}benzenecarbonitrile, HCl salt] | < 100 | < 100 |  |
| COc1ccc(-c2nc3ccn(C[C@H]4CCNC4)c3cc2-c2ccc(C#N)cc2)cc1F [Example 51, 4-{1-[((3S)pyrrolidin-3-y])methyl]-5-(3-fluoro-4-methoxyphenyl)pyrrolo[3,2-b]pyridin-6-yl}benzenecarbonitrile, HCl salt] | < 100 | < 100 |  |
| COc1ccc(-c2nc3ccn(C[C@@H]4CCNC4)c3cc2-c2ccc(C#N)c(F)c2)cc1 [Example 52, HCl salt] |  | < 100 | < 100 |
| COc1ccc(-c2nc3ccn(C[C@@H]4CCNC4)c3cc2-c2ccc(C#N)c(F)c2)cc1F [Example 53, 4-{1-[((3R)pyrrolidin-3-yl)methyl]-5-(3-fluoro-4-methoxyphenyl)pyrrolo[3,2-b]pyridin-6-yl}-2-fluorobenzenecarbonitrile HCl salt] | < 100 | < 100 |  |
| COc1ccc(-c2nc3ccn(C[C@H]4CCNC4)c3cc2-c2ccc(C#N)c(F)c2)cc1 [Example 54] | < 100 | < 100 |  |
